Measurements taken from patent US9789146B1, “Synthesis of adansonia digitata nanoparticles” (KING SAUD UNIVERSITY, priority 2017, dated 2017).

Assays:
Experiment in all cases: Antimicrobial activity, diffusion agar technique
Type in all cases: cell-based
Conditions in all cases: well diameter 6.0 mm, 100 μl tested
[1] = system: Streptococcus pneumoniae (RCMB 010011)
Experimental: (§1) The antimicrobial effect of the Adansonia digitata nanoparticles was evaluated against different gram positive and gram negative bacteria as well as fungi. The test was done using the diffusion agar technique and the well diameter was 6.0 mm (100 μl was tested). The mean zone of inhibition in mm±Standard deviation beyond well diameter (6 mm) produced on a range of environmental and clinically pathogenic microorganisms.

[2] = system: Bacillis subtilis (RCMB 010068)
Experimental: as §1

[3] = system: Aspergillus fumigatus (RCMB 02567)
Experimental: as §1

[4] = system: Escherichia coli (RCMB 010054)
Experimental: as §1

CC1(C)S[C@@H]2[C@H](NC(=O)[C@H](N)c3ccccc3)C(=O)N2[C@H]1C(=O)O [Ampicillin]
mean zone of inhibition ± Standard deviation beyond well diameter [1]: 21.0 ± 1.0 mm
mean zone of inhibition ± Standard deviation beyond well diameter [2]: 31.3 ± 1.5 mm

C[C@@H]1[C@H](O)[C@@H](C)/C=C/C=C/C=C/C=C/C=C/C=C/C=C/[C@H](O[C@@H]2O[C@H](C)[C@@H](O)[C@H](N)[C@@H]2O)C[C@@H]2O[C@](O)(C[C@@H](O)C[C@@H](O)[C@H](O)CC[C@@H](O)C[C@@H](O)CC(=O)O[C@H]1C)C[C@H](O)[C@H]2C(=O)O [Amphotericin B]
mean zone of inhibition ± Standard deviation beyond well diameter [3]: 21.7 ± 1.5 mm

Gentamicin
mean zone of inhibition ± Standard deviation beyond well diameter [4]: 20.3 ± 0.58 mm
